Laboratory results from ChEMBL document CHEMBL1136937, “Discovery of a potent class I selective ketone histone deacetylase inhibitor with antitumor activity in vivo and optimized pharmacokinetic properties” (J Med Chem, 2009).
pIC50: −log10 of the molar value. ≈ marks a conversion by molar mass, not a printed value. One block for each molecule: values may come before it. Calls of active or inactive are those of the source. The rule behind the calls is not given here.

Tests used:
[1] = Metabolic stability in dog liver microsomes assessed as intrinsic clearance at 1 uM after 90 mins; type: ADME, Canis lupus familiaris, Microsome; conditions: for microsomal CLint at 1 µM: liver microsomes
HeLa = assay: Antiproliferative activity against human P53-deficient HeLa cells after 72 hrs by celltiter-blue cell viability assay; type: functional
[2] = (§1) Metabolic stability in human liver microsomes assessed as intrinsic clearance at 1 uM after 90 mins; type: ADME, Microsome; conditions: liver microsomes
Histone deacetylase 1 = Histone deacetylase 1 (Homo sapiens, UniProt Q13547)
Histone deacetylase 1, sequence (Q13547 whole entry): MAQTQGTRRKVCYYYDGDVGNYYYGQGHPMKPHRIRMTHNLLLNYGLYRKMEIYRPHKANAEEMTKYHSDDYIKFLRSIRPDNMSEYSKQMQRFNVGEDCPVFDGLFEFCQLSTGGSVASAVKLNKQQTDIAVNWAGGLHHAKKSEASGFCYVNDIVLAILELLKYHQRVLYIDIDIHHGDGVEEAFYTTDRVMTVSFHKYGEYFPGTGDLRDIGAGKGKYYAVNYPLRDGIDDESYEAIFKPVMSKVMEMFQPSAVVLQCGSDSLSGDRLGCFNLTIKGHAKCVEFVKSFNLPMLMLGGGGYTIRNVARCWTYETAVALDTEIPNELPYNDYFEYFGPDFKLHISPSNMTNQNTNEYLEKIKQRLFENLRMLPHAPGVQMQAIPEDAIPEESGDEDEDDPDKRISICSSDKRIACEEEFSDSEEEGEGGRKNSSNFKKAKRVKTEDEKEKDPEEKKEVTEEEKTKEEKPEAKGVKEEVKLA
Description: Inhibition of human C-terminal FLAG-tagged HDAC1 in HEK293 cells

[3] = Metabolic stability in rat liver microsomes assessed as intrinsic clearance at 1 uM after 90 mins; type: ADME, Microsome
G-401 = assay: Antiproliferative activity against human G401 cells after 72 hrs by celltiter-blue cell viability assay; type: functional
HCT-116 [4] = assay: Antiproliferative activity against human P53 expressing HCT116 cells after 72 hrs by celltiter-blue cell viability assay; type: functional
MCF7 = assay: Antiproliferative activity against human MCF7 cells after 72 hrs by celltiter-blue cell viability assay; type: functional
[5] = Terminal half life in Beagle dog at 1 mg/kg, iv and 2 mg/kg, po; type: ADME, organism-based, Canis lupus familiaris; conditions: in vivo, read-out: beta t1/2 (converted)
[6] = Clearance in Sprague-Dawley rat plasma at 3 mg/kg, iv and 3 mg/kg, po; type: ADME, organism-based
[7] = Oral bioavailability in Sprague-Dawley rat at 3 mg/kg; type: ADME, organism-based; conditions: in vivo
[8] = Plasma concentration in Sprague-Dawley rat at 3 mg/kg, po after 24 hrs; type: ADME, organism-based; parameters: dose 3 mg/kg, route oral
[9] = Plasma concentration in Beagle dog at 2 mg/kg, po after 24 hrs; type: ADME, organism-based, Canis lupus familiaris; parameters: dose 2 mg/kg, route oral
[10] = Volume of distribution at steady state in Beagle dog at 1 mg/kg, iv and 2 mg/kg, po; type: ADME, organism-based, Canis lupus familiaris; conditions: in vivo, read-out: Vdss
Cytochrome P450 3A4 [11] = biological target: T1, Cytochrome P450 3A4 (Homo sapiens, UniProt P08684); assay: Inhibition of CYP3A4; type: ADME
T1 sequence (P08684 whole entry): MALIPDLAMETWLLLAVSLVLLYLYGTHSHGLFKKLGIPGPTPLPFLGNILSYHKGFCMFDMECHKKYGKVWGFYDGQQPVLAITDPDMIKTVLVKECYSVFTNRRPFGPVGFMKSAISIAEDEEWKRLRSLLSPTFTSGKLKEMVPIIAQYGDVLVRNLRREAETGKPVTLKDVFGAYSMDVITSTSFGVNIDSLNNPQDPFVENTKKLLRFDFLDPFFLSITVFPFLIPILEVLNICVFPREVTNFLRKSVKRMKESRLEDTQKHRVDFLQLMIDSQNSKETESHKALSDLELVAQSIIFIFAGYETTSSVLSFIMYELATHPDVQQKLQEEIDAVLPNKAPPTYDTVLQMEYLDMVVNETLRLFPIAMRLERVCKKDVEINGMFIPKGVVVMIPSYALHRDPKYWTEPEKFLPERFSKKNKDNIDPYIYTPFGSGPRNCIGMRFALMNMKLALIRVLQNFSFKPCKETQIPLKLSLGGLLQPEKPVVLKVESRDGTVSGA

Mus musculus [12] = assay: Toxicity in BALB/c nu/nu mouse assessed as body weight loss at 10 mg/kg, ip administered once daily for 5 days per week; type: organism-based; parameters: dose 10 mg/kg, route intraperitoneal; conditions: in vivo, 120 h
[13] = biological target: T2, Protein deacetylase HDAC6 (Homo sapiens, UniProt Q9UBN7)
T2 sequence (Q9UBN7 whole entry): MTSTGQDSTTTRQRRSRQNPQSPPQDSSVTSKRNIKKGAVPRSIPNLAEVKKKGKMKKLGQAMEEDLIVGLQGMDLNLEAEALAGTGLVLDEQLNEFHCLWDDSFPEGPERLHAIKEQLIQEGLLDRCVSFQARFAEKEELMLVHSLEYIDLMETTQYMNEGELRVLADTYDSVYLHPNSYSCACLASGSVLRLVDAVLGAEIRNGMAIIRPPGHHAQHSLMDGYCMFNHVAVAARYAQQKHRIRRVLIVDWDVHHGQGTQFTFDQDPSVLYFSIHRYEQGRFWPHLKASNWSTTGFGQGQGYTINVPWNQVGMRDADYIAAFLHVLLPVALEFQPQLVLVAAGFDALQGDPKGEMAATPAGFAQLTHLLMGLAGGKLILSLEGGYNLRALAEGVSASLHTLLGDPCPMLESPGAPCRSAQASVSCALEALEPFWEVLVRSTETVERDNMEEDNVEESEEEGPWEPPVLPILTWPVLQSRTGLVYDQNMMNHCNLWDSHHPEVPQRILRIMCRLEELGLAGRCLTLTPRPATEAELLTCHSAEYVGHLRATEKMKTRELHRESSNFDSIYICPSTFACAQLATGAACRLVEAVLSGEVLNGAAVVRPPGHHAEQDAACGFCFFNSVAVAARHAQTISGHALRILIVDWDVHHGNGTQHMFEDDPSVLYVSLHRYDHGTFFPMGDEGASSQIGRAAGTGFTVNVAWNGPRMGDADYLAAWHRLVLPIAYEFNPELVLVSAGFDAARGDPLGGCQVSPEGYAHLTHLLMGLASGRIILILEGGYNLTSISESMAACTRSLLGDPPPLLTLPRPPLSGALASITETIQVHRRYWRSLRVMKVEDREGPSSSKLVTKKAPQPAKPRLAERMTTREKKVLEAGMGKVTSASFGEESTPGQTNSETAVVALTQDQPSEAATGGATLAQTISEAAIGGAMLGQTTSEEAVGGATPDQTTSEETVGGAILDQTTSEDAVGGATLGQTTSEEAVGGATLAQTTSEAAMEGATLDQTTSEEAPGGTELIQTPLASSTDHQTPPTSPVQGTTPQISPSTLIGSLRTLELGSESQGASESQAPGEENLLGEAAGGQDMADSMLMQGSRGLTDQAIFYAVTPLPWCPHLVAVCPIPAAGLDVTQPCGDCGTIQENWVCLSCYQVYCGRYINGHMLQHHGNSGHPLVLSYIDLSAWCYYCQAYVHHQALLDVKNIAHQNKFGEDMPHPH
Description: Inhibition of C-terminal FLAG-tagged HDAC6 expressed in mammalian cells

[14] = Terminal half life in Sprague-Dawley rat at 3 mg/kg, iv and 3 mg/kg, po; type: ADME, organism-based; conditions: in vivo, read-out: beta t1/2 (converted)
A2780 = assay: Antiproliferative activity against human A2780 cells after 72 hrs by celltiter-blue cell viability assay; type: functional; conditions: A2780, 72 h
Histone deacetylase 5 = Histone deacetylase 5 (Homo sapiens, UniProt Q9UQL6); assay: Inhibition of wild type His-tagged HDAC5 catalytic domain T678-L1122 expressed in Escherichia coli
Histone deacetylase 5, sequence (Q9UQL6 whole entry, the tested form may be a part): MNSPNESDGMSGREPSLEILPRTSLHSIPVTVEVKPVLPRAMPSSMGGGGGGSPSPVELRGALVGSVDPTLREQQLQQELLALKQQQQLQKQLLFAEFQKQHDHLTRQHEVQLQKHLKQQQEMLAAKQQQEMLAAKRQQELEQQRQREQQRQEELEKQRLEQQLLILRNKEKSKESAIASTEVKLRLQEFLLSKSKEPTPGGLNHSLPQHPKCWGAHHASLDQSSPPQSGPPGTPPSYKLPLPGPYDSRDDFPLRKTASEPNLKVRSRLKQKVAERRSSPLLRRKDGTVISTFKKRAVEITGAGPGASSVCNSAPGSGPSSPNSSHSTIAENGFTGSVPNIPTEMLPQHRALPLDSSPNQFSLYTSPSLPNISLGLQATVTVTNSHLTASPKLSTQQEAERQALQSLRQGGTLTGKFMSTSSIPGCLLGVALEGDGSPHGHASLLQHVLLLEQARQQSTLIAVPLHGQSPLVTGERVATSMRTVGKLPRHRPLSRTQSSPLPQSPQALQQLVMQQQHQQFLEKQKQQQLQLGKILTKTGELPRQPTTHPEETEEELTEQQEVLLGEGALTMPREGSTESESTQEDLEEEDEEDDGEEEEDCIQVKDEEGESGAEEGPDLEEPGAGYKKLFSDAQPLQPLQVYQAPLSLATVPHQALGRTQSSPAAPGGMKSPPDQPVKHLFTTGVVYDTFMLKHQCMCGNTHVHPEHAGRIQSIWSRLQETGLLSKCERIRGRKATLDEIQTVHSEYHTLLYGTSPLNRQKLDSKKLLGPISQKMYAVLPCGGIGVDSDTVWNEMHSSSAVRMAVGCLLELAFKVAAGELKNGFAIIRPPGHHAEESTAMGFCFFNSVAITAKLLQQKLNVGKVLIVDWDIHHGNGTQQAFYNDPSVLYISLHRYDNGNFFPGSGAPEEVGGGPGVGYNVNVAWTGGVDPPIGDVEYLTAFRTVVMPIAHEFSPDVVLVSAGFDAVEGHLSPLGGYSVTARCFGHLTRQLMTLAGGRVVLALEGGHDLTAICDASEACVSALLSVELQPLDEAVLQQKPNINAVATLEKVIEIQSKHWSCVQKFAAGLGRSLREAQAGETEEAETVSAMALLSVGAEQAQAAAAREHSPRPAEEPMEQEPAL

[15] = Oral bioavailability in Beagle dog at 2 mg/kg; type: ADME, organism-based, Canis lupus familiaris; conditions: in vivo
Cytochrome P450 3A4 [16] = biological target: T1, Cytochrome P450 3A4; assay: Induction of CYP3A4; type: ADME
HCT-116 [17] = assay: Antitumor activity against human HCT116 cells xenografted nude mouse assessed as reduction in tumor growth at […], ip administered once daily for 5 days per week; type: functional, organism-based
A549 = assay: Antiproliferative activity against human P53 expressing A549 cells after 72 hrs by celltiter-blue cell viability assay; type: functional; conditions: A549, 72 h
Histone deacetylase 7 = biological target: T3, Histone deacetylase 7 (Homo sapiens, UniProt Q8WUI4); assay: Inhibition of wild type His-tagged HDAC7 catalytic domain T515-L952 expressed in Escherichia coli
T3 sequence (Q8WUI4 whole entry): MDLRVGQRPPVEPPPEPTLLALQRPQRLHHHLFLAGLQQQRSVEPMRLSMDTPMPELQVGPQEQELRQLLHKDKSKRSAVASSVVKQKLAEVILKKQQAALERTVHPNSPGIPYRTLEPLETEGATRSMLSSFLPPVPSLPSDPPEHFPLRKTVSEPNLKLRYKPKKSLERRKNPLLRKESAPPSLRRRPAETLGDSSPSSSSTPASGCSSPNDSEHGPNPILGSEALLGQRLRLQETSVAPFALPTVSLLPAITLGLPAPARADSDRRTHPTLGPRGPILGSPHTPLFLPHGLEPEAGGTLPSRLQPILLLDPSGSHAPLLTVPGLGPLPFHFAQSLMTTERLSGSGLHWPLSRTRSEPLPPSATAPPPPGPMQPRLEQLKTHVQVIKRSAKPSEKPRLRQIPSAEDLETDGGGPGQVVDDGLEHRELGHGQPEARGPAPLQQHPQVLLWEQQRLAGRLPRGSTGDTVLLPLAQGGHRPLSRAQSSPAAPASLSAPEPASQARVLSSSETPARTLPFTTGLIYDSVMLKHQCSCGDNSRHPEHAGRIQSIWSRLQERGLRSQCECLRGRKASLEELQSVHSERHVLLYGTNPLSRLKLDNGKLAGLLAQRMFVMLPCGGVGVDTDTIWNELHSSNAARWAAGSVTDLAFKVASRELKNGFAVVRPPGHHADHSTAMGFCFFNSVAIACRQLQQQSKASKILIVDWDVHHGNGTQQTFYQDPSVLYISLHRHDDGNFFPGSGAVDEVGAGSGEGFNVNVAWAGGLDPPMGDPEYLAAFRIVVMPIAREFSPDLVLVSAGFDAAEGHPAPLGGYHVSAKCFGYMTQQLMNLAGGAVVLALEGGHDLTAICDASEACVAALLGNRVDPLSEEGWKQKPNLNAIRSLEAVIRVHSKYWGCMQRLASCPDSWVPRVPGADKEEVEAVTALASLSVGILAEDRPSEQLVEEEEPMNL

[18] = Volume of distribution at steady state in Sprague-Dawley rat at 3 mg/kg, iv and 3 mg/kg, po; type: ADME, organism-based; conditions: in vivo, read-out: Vdss
Cytochrome P450 2C9 = Cytochrome P450 2C9 (Homo sapiens, UniProt P11712); assay: Inhibition of CYP2C9; type: ADME
Cytochrome P450 2C9, sequence (P11712 whole entry): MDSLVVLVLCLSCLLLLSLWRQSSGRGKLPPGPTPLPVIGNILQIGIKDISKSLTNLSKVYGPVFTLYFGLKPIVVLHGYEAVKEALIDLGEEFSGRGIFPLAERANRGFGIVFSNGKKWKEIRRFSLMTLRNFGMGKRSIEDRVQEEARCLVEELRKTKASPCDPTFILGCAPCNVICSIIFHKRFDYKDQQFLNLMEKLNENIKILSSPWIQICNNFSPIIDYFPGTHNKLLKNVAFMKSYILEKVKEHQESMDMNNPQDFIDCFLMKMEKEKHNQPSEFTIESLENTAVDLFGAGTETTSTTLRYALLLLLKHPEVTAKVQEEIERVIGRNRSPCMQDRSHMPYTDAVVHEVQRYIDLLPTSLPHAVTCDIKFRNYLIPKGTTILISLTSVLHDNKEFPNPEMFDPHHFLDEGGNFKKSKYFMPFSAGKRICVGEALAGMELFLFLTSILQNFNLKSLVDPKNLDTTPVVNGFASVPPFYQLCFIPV

[19] = Toxicity in ip dosed BALB/c nu/nu mouse assessed as maximum tolerated dose; type: organism-based; conditions: in vivo
[20] = Solubility in buffered aqueous solution at pH 4.1; type: physicochemical
U-937 = assay: Antiproliferative activity against human U937 cells after 72 hrs by celltiter-blue cell viability assay; type: functional; conditions: U-937, 72 h
Mus musculus [21] = assay: Toxicity in BALB/c nu/nu mouse assessed as adverse effect at 10 mg/kg, ip administered once daily for 5 days per week; type: organism-based; parameters: dose 10 mg/kg, route intraperitoneal; conditions: in vivo, 120 h
[22] = Clearance in Beagle dog at 1 mg/kg, iv and 2 mg/kg, po; type: ADME, organism-based, Canis lupus familiaris; conditions: in vivo
HCT-116 [23] = assay: Antitumor activity against human HCT116 cells xenografted BALB/c nu/nu mouse assessed as reduction in tumor growth at 10 mg/kg, ip administered once daily for 5 days per week; type: functional, organism-based; parameters: dose 10 mg/kg
Liver microsomes = assay: as §1; type: ADME, Microsome; conditions: microsomes, 1.5 h, 1 µM

- microsomal CLint at 1 µM [1]: 24 µL/min/mg
- microsomal CLint at 1 µM [2]: 49 µL/min/mg
- pIC50 (Histone deacetylase 1): 8.40
- microsomal CLint at 1 µM [3]: 510 µL/min/mg
Structure (SMILES): CCC(=O)CCCCC[C@H](NC(=O)C1CCN(C)CC1)c1ncc(-c2cnc3ccccc3c2)[nH]1
- CC50 (HeLa): 250 nM

Structure (SMILES): O=C(CCCCCCC(=O)Nc1ccccc1)NO [VORINOSTAT]
- CC50 (G-401): 1000 nM
- CC50 (HCT-116 [4]): 1000 nM
- CC50 (MCF7): 3000 nM

Structure (SMILES): CCC(=O)CCCCC[C@H](NC(=O)C1CN(C)C1)c1ncc(-c2cc3ccccc3nc2OC)[nH]1
- half-life [5]: 14 h
- clearance [6]: 19 mL/min/kg
- bioavailability [7]: 73%
- concentration at 24 h [8]: > 100 nM
- concentration at 24 h [9]: > 100 nM
- Vd [10]: 3.5 L/kg
- Activity (Cytochrome P450 3A4 [11]): Not Active
- Activity (Mus musculus [12]): Non-toxic
- pIC50 [13]: 3.17
- half-life [14]: 7 h
- microsomal CLint at 1 µM [1]: 29 µL/min/mg
- CC50 (G-401; Homo sapiens, G-401, 72 h): 370 nM
- CC50 (A2780): 740 nM
- CC50 (HeLa): 135 nM
- CC50 (HCT-116 [4]; Homo sapiens, HCT-116, 72 h): 220 nM
- microsomal CLint at 1 µM [2]: 31 µL/min/mg
- pIC50 (Histone deacetylase 5): < 5.00
- bioavailability [15]: 31%
- Activity (Cytochrome P450 3A4 [16]): Not Active
- Activity (HCT-116 [17]): Active
- CC50 (A549): 490 nM
- pIC50 (Histone deacetylase 7): < 5.00
- Vd [18]: 7.9 L/kg
- pIC50 (Cytochrome P450 2C9): 5.26
- MTD [19]: 10 mg/kg
- solubility [20]: 13 mg/mL (≈ 27.2 mM)
- CC50 (U-937): 240 nM
- Activity (Mus musculus [21]): Non-toxic
- microsomal CLint at 1 µM [3]: 29 µL/min/mg
- clearance [22]: 4 mL/min/kg
- CC50 (MCF7; Homo sapiens, MCF7, 72 h): 750 nM
- Activity (HCT-116 [23]): Active

- clearance [6]: 155 mL/min/kg
- microsomal CLint at 1 µM [1]: 9 µL/min/mg
- microsomal CLint at 1 µM [2]: 12 µL/min/mg
- pIC50 (Histone deacetylase 1): 7.66
- microsomal CLint at 1 µM [3]: 110 µL/min/mg
Structure (SMILES): CCC(=O)CCCCC[C@H](NC(=O)C1CCN(C)CC1)c1ncc(-c2ccc3ccccc3n2)[nH]1
- CC50 (HeLa): 480 nM

- CL ([1]; microsomes, 1.5 h, 1 µM): 194 µL/min/mg
- CL (Liver microsomes): 194 µL/min/mg
Structure (SMILES): CC(=O)CCCCC[C@H](NC(=O)C1CCN(C)CC1)c1ncc(-c2ccc3ccccc3c2)[nH]1
- CC50 (HeLa): 300 nM

- microsomal CLint at 1 µM [1]: 20 µL/min/mg
- microsomal CLint at 1 µM [2]: 19 µL/min/mg
- pIC50 (Histone deacetylase 1): 8.10
- microsomal CLint at 1 µM [3]: 27 µL/min/mg
Structure (SMILES): CCC(=O)CCCCC[C@H](NC(=O)C1CN(C)C1)c1ncc(-c2cnc3ccccc3n2)[nH]1
- CC50 (HeLa): 430 nM

- microsomal CLint at 1 µM [1]: 3 µL/min/mg
- microsomal CLint at 1 µM [2]: < 1 µL/min/mg
- pIC50 (Histone deacetylase 1): 7.41
- microsomal CLint at 1 µM [3]: 13 µL/min/mg
Structure (SMILES): CCC(=O)CCCCC[C@H](NC(=O)C1CN(C)C1)c1ncc(-c2ccc3nccnc3c2)[nH]1
- CC50 (HeLa): 1200 nM

- microsomal CLint at 1 µM [1]: 194 µL/min/mg
- microsomal CLint at 1 µM [2]: 194 µL/min/mg
- microsomal CLint at 1 µM [3]: > 200 µL/min/mg
Structure (SMILES): CCC(=O)CCCCC[C@H](NC(=O)C1CCN(C)CC1)c1ncc(-c2ccc3ccccc3c2)[nH]1
- CC50 (HeLa): 210 nM
